In US20030138430A1, “Pharmaceutical comprising an agent that blocks the cell cycle and an antibody” (priority 2002, published 2003):
Structures can show the parent of a compound that is named as a salt.

Legend:
[1] = system: Ep-CAM antigen on HT-29 colon adenocarcinoma cells; assay: Internalization of lutetium-177-labeled GW1208W95 (anti-Ep-CAM); type: cell-based, human; settings: HT-29 cells pretreated with drug; 37° C
Method: Internalization of Lutetium-177-labeled GW1208W95 (anti-Ep-CAM) by Human Colon Adenocarcinoma Cells. Colon adenocarcinoma cells (HT-29) were plated in 6-well plates and cultured. Subconfluent cells were exposed to cytotoxic drugs for up to 24 hours. Cells were washed and cultured for another 2-5 days. The plates were put on ice (0° C.) for minimum of 60 minutes and lutetium-177-labeled coupled to 6,6″-bis {N,N,N″,N″-tetra(carboxymethyl)aminomethyl)-4′-(3-bromoacetamido-4-methoxyphenyl-2,2′:6,2″-terpyridine) at 0.5-1.0 mCi/mg was added at a final concentration of 6.7 nM. Cells were incubated at 0° C. for 3.5 hr. Following incubation at 0° C., the cells were washed with 2.5 mL of ice-cold phosphate-buffered saline with human serum albumin (1%) (PBS-HSA). Then 2.5 mL pre-warmed media was added and the labeled cells were incubated at 37° C. At the indicated time points, cells were washed twice with 2.5 mL PBS-HSA. Cells were incubated for 5 minutes at room temperature with 2.5 mL 0.1 M NaCl in 0.05 M glycine (pH 2.8) to detemine labeled antibody bound to the target surface antigen. The incubation was repeated and counts pooled. Internalized counts were determined by solubilization of the cell layer with 1.0 mL of 1 N NaOH. Samples were counted using a Packard CliniGamma 5000. Data was normalized to cell count for each well.
Colon adenocarcinoma cells (HT-29) in culture were pretreated with chemotherapeutic agents as described previously for the evaluation of cell cycle and cell surface antigen quantitation. […] Cells were pulse-labeled with ^177Lu-GW1208W95 (6.7 nM @ 0.5-1.0 mCi/mg protein) for a minimum of 60 minutes at 0° C. on ice to inhibit surface antigen internalization. After washing away of excess radiolabeled antibody fresh media was added, and the cells were incubated at 37° C. for time indicated. Surface-bound antibody was eluted with isotonic buffer and both acid-labile (surface-bound) and acid-stable (internalized) radioactivity were quantitated.

[2] = Navelbine tolerability in CD-1 nude mice; settings: intravenous, days 1 and 5, CD-1 nude mice
Method: Human colon adenocarcinoma (HT-29) tumors were initiated by subcutaneous implantation into female CD-1 nude mice (Charles River). When the tumors reached 200-300 mg, animals were divided into groups of five. Navelbine was injected intravenously at a dosage of 28 mg/kg in vehicle (5% dextrose in distilled water) on days 1 and 5.

[3] = system: erbB2 receptor on NHBE and HMEC normal epithelial cells; assay: Quantitation of cell surface erbB2 presentation on normal epithelial cells; type: cell-based, human; settings: compared with untreated controls
Method: Cells were exposed to Gemzar (gemcitabine (GMZ), Lilly, Indianapolis, Ind.) or 5FU (Adrucil®, Pharmacia & Upjohn) for 24 hours. Cells were exposed to interferons continuously for 2-5 days. Following drug exposure, cells were washed and cultured for another 2-5 days prior to analysis for antigen presentation and cell cycle status, except for those treated with interferons. Cells were dissociated from the culture plates using a collagenase cocktail (1:1:1,Types I, II, and IV, 0.1% (wt/vol), Gibco) in calcium- and magnesium-free phosphate-buffered saline. Cells were stained and cytometric data was collected as described in Example 1, and antigen expression was quantified as described in Example 2.

[4] = system: PC-3 prostatic adenocarcinoma cells; settings: PC-3 cells; Navelbine 30 nM alone or with cisplatin; GW3622W94; human PBMC effectors 50:1; 6 hours
Method: Ep-CAM Antigen Expression and ADCC of Prostatic Adenocarcinoma in Culture. Biological Effectiveness in vitro as Measured by Antibody-dependent Cellular Cytotoxicity. […] Target cells were cultured overnight with 100 μCi Na2^51CrO4 (Amersham) in media, and then washed 3 times with RPMI-1640 containing 2 mM L-glutamine, 50 μg/mL gentamicin, and 10% heat-inactivated FBS. […] Spontaneous lysis wells (CPMspontaneous) received media (no effectors) and total lysis wells (CPMTotal) received Triton-X-100. Cultures were incubated for 6 hours at 37° C./5% CO2, then supernatants were harvested using Skatron filter frames (Skatron Instruments, Sterling Va.). Radioactivity was counted in a gamma counter and the percentage specific release, corrected for spontaneous lysis, was calculated.

[5] = system: erbB2 receptor on MCF-7 and MDA-MB-468 breast adenocarcinoma cells; assay: Quantitation of cell surface erbB2 presentation; type: cell-based; settings: for cell surface erbB2 presentation: compared with untreated controls (Example 2); for cell surface presentation of erbB2 receptor: Example 3
Method: (§1) Populations of adenocarcinoma cells were evaluated for distribution in G0/G1, S and G2/M phases of the cell cycle as well as for erbB2/neu presentation. Cells were dissociated from the culture plates using Versene (Gibco) and resuspended in calcium- and magnesium-free phosphate-buffered saline containing bovine serum albumin and sodium azide. Exactly 2×10^5 cells were stained with R-Phycoerythrin-conjugated-anti-HER-2/neu murine IgG (Cat. 340552, Becton Dickinson) in buffer containing 100 μg/mL mouse IgG (Cat. 15381, Sigma). Cells were fixed with FACSLyse (Cat. 92-002, Becton Dickinson) followed by a short post-fix with ethanol at −20° C. Cellular DNA was stained with DAPI (Cat. D1306, Molecular Probes) in buffer containing RNase A (Sigma).
Sample data were collected on a FACStar^PLUS® flow cytometer (Becton Dickinson) equipped with a 488 nm argon ion laser in position 1 and a 350 nm argon ion laser in position 2. For each cell analyzed, data was collected on signal pulses from linear forward scatter height and width, linear area and width of DAPI fluorescence for DNA, and logarithmic fluorescence height of the HER-2/neu antibody probe. The resulting listmode files were processed using Winlist 3D© software (Verity Software House, Topsham, Me.). […] The remaining cells were analyzed for cell cycle position by manual gating and HER-2/neu surface antigen density. Using the bead standard system described in Example 2, values of mean fluorescence intensity for HER-2/neu and other antigens were converted to values of “Antibodies Bound per Cell” (ABC) during analysis.
Cells were exposed to Gemzar (gemcitabine (GMZ), Lilly, Indianapolis, Ind.) for 24 hours. […] Following drug exposure, cells were washed and cultured for another 2-5 days prior to analysis for antigen presentation and cell cycle status, except for those treated with BB-94. Cells were dissociated from the culture plates using Versene (Gibco) and resuspended in calcium- and magnesium-free phosphatebuffered saline containing bovine serum albumin and sodium azide. Exactly 2×10^5 cells were stained as described in Example 1. Antigen presentation was quantified against calibrated bead standards calibrated by the vendor for murine IgG binding capacity (Quantum Simply Cellular Bead, Cat. QSC-100, Sigma); calibration beads were stained with R-phycoerythrin-conjugated anti-HER-2/neu murine IgG. Plots of fluorescence intensity against bead IgG binding capacity were constructed, and molecules of IgG bound per cell was read from the fluorescence intensity of the stained cells.
Cells were exposed to interferons continuously for 2-5 days. […] Exactly 2×10^5 cells were stained as described in Example 1, and antigen expression was quantified as described in Example 2.

[6] = system: HT-29 colon adenocarcinoma tumors; assay: Targeting of 177Lu-labelled antibody to Ep-CAM-positive HT-29 xenografts; type: in vivo, mouse
Method: Human colon adenocarcinoma (HT-29) tumors were initiated by subcutaneous implantation into female CD-1 nude mice (Charles River). When the tumors reached 200-300 mg, animals were divided into groups of five. […] A control group was dosed with 5-fluorouracil (5-FU) intraperitoneally at 20 mg/kg on days 1 and 5. […] Blood, spleen, liver, lung, kidney, femur, and tumor were harvested on days 1, 3 and 5 post-antibody-dose for direct gamma counting (Packard).

[7] = system: HT-29 colon adenocarcinoma cells; assay: Cell cycle analysis by flow cytometry (propidium iodide); type: cell-based, human; settings: HT-29 cells; media control 6.3%
Method: (§2) FIG. 7. Cell Cycle Analysis and Quantitation of Antigen Expression. Populations of adenocarcinoma cells were evaluated for distribution in G0/G1, S, and G2/M phases of the cell cycle as well as Ep-CAM presentation on the cell surface. […] Cells were exposed to 5-fluorouracil (5-FU) for 24 hours, and to the interferons continuously for 2-5 days. Cells were washed and cultured for another 2 days prior to analysis for antigen presentation except for cells exposed to interferons. Cells were lightly trypsinized and mechanically detached from the culture flasks and resuspended in calcium- and magnesium-free phosphate-buffered saline containing bovine serum albumin and sodium azide. Exactly 2×10^5 cells were stained with FITC-323/A3 murine IgG antibody or FITC-murine IgG (control). Cells were fixed with cold paraformaldehyde, then permeabilized for DNA staining with Tween-20. Cellular DNA was stained with a propidium iodide buffer containing RNAse A. Listmode data were acquired using Lysis II software on a FACScan flow cytometer (Becton Dickinson Immunocytometry Systems) equipped with a 488 nm laser. Cell cycle analysis was done using CellFit software for SOBR modeling of the histograms (where possible, otherwise manual estimations were employed) on Cell-Fit. Ep-CAM antigen presentation was quantitated by comparison of the mean fluorescence intensity of fluorescein-conjugated 323/A3 bound to cultured cells with the fluorescence intensity of calibrated microbead standards and evaluated separately using histogram analysis in WinList (Verity Software House). Standard curves of calibration bead concentration versus fluorescence intensity were constructed in SoftMax Pro (Molecular Devices, Inc.), and fluorescence intensity of stained cells was used to calculate the number of antigen molecules per cell for the population.
(§3) Adenocarcinoma cells (HT-29) were exposed to Navelbine or Taxol or combinations of drugs as indicated in FIG. 7 and the cells were evaluated for cell surface Ep-CAM presentation in addition to cell cycle distribution. […]

[8] = system: Ep-CAM antigen on HT-29 colon adenocarcinoma cells; assay: Quantitation of cell surface Ep-CAM antigen with FITC-323/A3; type: cell-based, human; settings: HT-29 cells after drug exposure, vs media control
Method: as §2, §3

[9] = system: erbB2 receptor on BT-474 breast and NCI H322 lung adenocarcinoma cells; assay: Quantitation of cell surface erbB2 presentation, high erbB2 cell lines; type: cell-based; settings: BT-474 and H322
Method: (§4) Cells were dissociated from the culture plates using Versene (Gibco) and resuspended in calcium- and magnesium-free phosphate-buffered saline containing bovine serum albumin and sodium azide. Exactly 2×10^5 cells were stained with R-Phycoerythrin-conjugated-anti-HER-2/neu murine IgG (Cat. 340552, Becton Dickinson) in buffer containing 100 μg/mL mouse IgG (Cat. 15381, Sigma). Cells were fixed with […]. 92-002, Becton Dickinson) followed by a short post-fix with ethanol at -20° C. Cellular DNA was stained with DAPI (Cat. D1306, Molecular Probes) in buffer containing RNase A (Sigma). […] For each cell analyzed, data was collected on signal pulses from linear forward scatter height and width, linear area and width of DAPI fluorescence for DNA, and logarithmic fluorescence height of the HER-2/neu antibody probe. […] The remaining cells were analyzed for cell cycle position by manual gating and HER-2/neu surface antigen density. Using the bead standard system described in Example 2, values of mean fluorescence intensity for HER-2/neu and other antigens were converted to values of “Antibodies Bound per Cell” (ABC) during analysis. […] Antigen presentation was quantified against calibrated bead standards calibrated by the vendor for murine IgG binding capacity (Quantum Simply Cellular Bead, Cat. QSC-100, Sigma); calibration beads were stained with R-phycoerythrin-conjugated anti-HER-2/neu murine IgG. […]

[10] = system: BT-474 breast and NCI H322 lung adenocarcinoma cells; assay: Cell cycle analysis by flow cytometry (DAPI), high erbB2 cell lines; type: cell-based; settings: BT-474 and H322; BB-94 10 μM alone
Method: as §4

[11] = system: SK-BR-3, MCF-7 and BT-474 breast adenocarcinoma cell lines; type: cell-based
Method: Cells were exposed to Gemzar (gemcitabine (GMZ), Lilly, Indianapolis, Ind.) for 24 hours. […] Cells were exposed to interferons continuously for 2-5 days.

[12] = system: MCF-7 and MDA-MB-468 breast adenocarcinoma cells; assay: Cell cycle analysis by flow cytometry (DAPI); type: cell-based; settings: Example 3
Method: as §1, with “Cellular DNA was stained with DAPI (Cat. D1306, Molecular Probes) in buffer containing RNase A (Sigma).” left out
Sample data were collected on a FACStar^PLUS® flow cytometer (Becton Dickinson) equipped with a 488 nm argon ion laser in position 1 and a 350 nm argon ion laser in position 2. For each cell analyzed, data was collected on signal pulses from linear forward scatter height and width, linear area and width of DAPI fluorescence for DNA, and logarithmic fluorescence height of the HER-2/neu antibody probe. […] The remaining cells were analyzed for cell cycle position by manual gating and HER-2/neu surface antigen density. Using the bead standard system described in Example 2, values of mean fluorescence intensity for HER-2/neu and other antigens were converted to values of “Antibodies Bound per Cell” (ABC) during analysis. […]

Molecule: CCC1=C[C@@H]2CN(C1)Cc1c([nH]c3ccccc13)[C@@](C(=O)OC)(c1cc3c(cc1OC)N(C)[C@H]1[C@@](O)(C(=O)OC)[C@H](OC(C)=O)[C@]4(CC)C=CCN5CC[C@]31[C@@H]54)C2 (relative stereo) [Navelbine, 3′, 4′-didehydro-4′-deoxy-C′-norvincaleukoblastine [R-(R*,R*)-2,3-dihydroxybutanedioate (1:2)(salt)]]
- internalization of the radiolabelled antibody 177Lu-GW1208W95 [1]: significantly inhibited internalization
- LD10 [2]: ~28 mg/kg
- cell surface erbB2 presentation [3]: no significant increases
- ADCC lysis of antibody-coated tumor target cells after drug pre-treatment [4]: improved
- cell surface erbB2 presentation [5]: significant increases
- tumor regression ([6]; Navelbine 28 mg/kg i.v. days 1 and 5, HT-29 xenografts): minimal tumor regression
- increase in tumor targeting of 177Lu-labelled antibody ([6]; Navelbine pretreatment 28 mg/kg i.v. days 1 and 5, relative to vehicle- or 5-FU-treated animals): 2 fold

Molecule: O=c1[nH]cc(F)c(=O)[nH]1 [5-FU, 5-fluorouracil]
- internalization of the radiolabelled antibody 177Lu-GW1208W95 [1]: extensive internalization
- cells in S and G2/M phases combined [7]: 7.9%
- cell surface Ep-CAM expression [8]: not significantly increased

Molecule: CNC(=O)[C@H](Cc1ccccc1)NC(=O)[C@H](CC(C)C)[C@H](CSc1cccs1)C(=O)NO [BB-94]
- cell surface erbB2 presentation [9]: increase in erbB2 presentation
- cell cycle distribution [10]: did not affect cell cycle distribution

Molecule: Nc1ccn([C@@H]2O[C@H](CO)[C@@H](O)C2(F)F)c(=O)n1 [Gemzar, gemcitabine]
- toxicity to cell lines based on the 18 s values [11]: toxic
- cell surface erbB2 presentation [9]: significant increases

Molecule: CC(=O)O[C@H]1C(=O)[C@@]2(C)[C@H]([C@H](OC(=O)c3ccccc3)[C@]3(O)C[C@H](OC(=O)[C@H](O)[C@@H](NC(=O)c4ccccc4)c4ccccc4)C(C)=C1C3(C)C)[C@]1(OC(C)=O)CO[C@@H]1C[C@@H]2O [Taxol, 5β, 20 epoxy-1,2α,4,7β,10β,13α-hexahydroxytax-11-en-9-one 4,10-diacetate 2-benzoate 13-ester with (2R, 3S)-N-benzoyl-3-phenylisoserine]
- internalization of the radiolabelled antibody 177Lu-GW1208W95 [1]: significantly inhibited internalization
- cell surface erbB2 presentation [3]: no significant increases
- cell surface erbB2 presentation [5]: significant increases

Molecule: interferon-alpha
- cell cycle distribution [12]: not significantly different from media control cells
- cells in S and G2/M phases combined [7]: 12%
- cell surface Ep-CAM expression [8]: not significantly increased
- cell surface presentation of erbB2 receptor [5]: not significantly increased

Molecule: interferon-gamma: interferon-gamma
- cell cycle distribution [12]: not significantly different from media control cells
- cells in S and G2/M phases combined [7]: 11.5%
- cell surface Ep-CAM expression [8]: not significantly increased
- cell surface presentation of erbB2 receptor [5]: not significantly increased

B1: interferon-gamma: interferon-gamma (protein, UniProt P01579 24-161, looked up)
Interferon gamma: QDPYVKEAENLKKYFNAGHSDVADNGTLFLGILKNWKEESDRKIMQSQIVSFYFKLFKNFKDDQSIQKSVETIKEDMNVKFFNSNKKKRDDFEKLTNYSVTDLNVQRKAIHELIQVMAELSPAAKTGKRKRSQMLFRG
- toxicity to cell lines based on the 18 s values [11]: toxic
